Results reported in patent publication US20200405715A1, “COMPOSITIONS AND METHODS FOR TREATING CANCER AND INFLAMMATORY DISEASES” (University of Pittsburgh - Of the Commonwealth System of …, priority 2016, published 2020).

Legend:
HepG2 cells [1] = experiment: HepG2 cell proliferation (CellTiter-Glo Luminescent Cell Viability Assay); type: cell-based; conditions: 96 h
Description: Cell proliferation were then measured by CellTiter-Glo® Luminescent Cell Viability Assay (n=3).
4KHepG2 cells were seeded in 96 well plates for overnight. Compounds listed in Table 3 were then added to each well at various concentrations. 96 h later, cell proliferation was measured by ATP production using a CellTiter-Glo® Luminescent Cell Viability Assay (Promega).
3-(pentylamino)-5-phenylcyclohex-2-en-1-one was modified by adding a different sidechain. These novel compounds were tested further in an in vitro proliferation assay using ATPLite Cell Proliferation kit. […] Others lost activity in reducing Cullin Neddylation and inhibiting cell proliferation (FIG. 3C-D).

[2] = system: Clvd-caspase3 and Clvd-PARP; experiment: Apoptosis markers, protein immunoblotting in HepG2 cells; type: cell-based
[3] = system: SCF substrates p27, NRF2 and CDT1; experiment: SCF substrates, protein immunoblotting in HepG2 cells; type: cell-based; conditions: 10 μM, various times (FIG. 6A)
HepG2 cells [4] = experiment: Cell cycle analysis by BrdU uptake and 7-AAD staining; type: cell-based
Description: (§1) HepG2 cells were treated with 3-(decylamino)-5-phenylcyclohex-2-en-1-one for 36 h with various concentrations. Cells were then analyzed by BrdU uptake and 7-AAD staining, G0, G1, S, G2/M phase cells were then quantitated and graphed. […] Confluent monolayers of HepG2 cells were injured and cellular migration into the wound was determined under vehicle or 3-(decylamino)-5-phenylcyclohex-2-en-1-one treated condition. 36 h later cells were then observed under white field microscopy and recovery of cells to wound heal was quantified and graphed (right).
(§2) HepG2 cells were treated with 3-(decylamino)-5-phenylcyclohex-2-en-1-one at 10 μM for various times. At each time point, cells were analyzed by BrdU uptake and 7-AAD staining, G0, G1, S, G2/M phase cells were then quantitated and graphed. […] Cells were then observed under white field microscopy.

HepG2 cells [5] = experiment: Wound-healing assay; type: cell-based; conditions: 36 h (FIG. 5C)
Description: as §1

HepG2 cells [6] = experiment: Cell morphology under white field microscopy; type: cell-based; conditions: 10 μM, time dependent (FIG. 6C)
Description: as §2

HepG2 tumor implants = HepG2 tumor implants in nude mice, tumor growth; type: in vivo, athymic nude mice; conditions: compounds in drinking water (15 mg/kg/d), start at tumor size 0.1 cm^3 (FIG. 8)
Description: Mice were implanted with HepG2 cells (10^6 cells) through subcutaneous injection. 2 weeks later, once tumor size reaches ˜0.1 cm^3, mice were randomized and the treatment began by adding compounds to the drinking water ([…]). Tested compounds were: Vehicle, 3-(decylamino)-5-phenylcyclohex-2-en-1-one (BC1558), 3-(dibenzylamino)-5-phenylcyclohex-2-en-1-one (BC1634) or 3-((4-phenoxybenzyl)amino)-5-phenylcyclohex-2-en-1-one (BC1653). Tumor volume measurements over time were graphed (n=4-5 mice/group, *P<0.05 versus Vehicle).
As a complementary in vivo model, tumorogenicity was further assessed after implanting HepG2 cells along with 3-(decylamino)-5-phenylcyclohex-2-en-1-one, 3-(dibenzylamino)-5-phenylcyclohex-2-en-1-one, 3-((4-phenoxybenzyl)amino)-5-phenylcyclohex-2-en-1-one treatment in athymic nude mice. Mice were implanted with HepG2 cells through subcutaneous injection. Two weeks later, once tumor size reached 0.1 cm^3, the mice were randomized and the treatment began by adding compounds to the drinking water (15 mg/kg/d).

HepG2 tumor tissue = experiment: PD/PK study, tumor tissue immunoblotting after single oral dose; type: in vivo, nude mice
Description: Nude mice were implanted with HepG2 cells (10^6 cells) through subcutaneous injection. Five weeks later, once tumor size reaches 0.3 cm^3, mice were randomized and given 1 dose of 3-(decylamino)-5-phenylcyclohex-2-en-1-one (15 mg/kg) by oral gavage. Mice were then euthanized, plasma and tumor tissue were isolated for analysis. Tumor tissue were grinded and assayed for protein immunoblotting (n=3-4).
A PD/PK study was also performed. Mice were implanted with HepG2 cells (10^6 cells) through subcutaneous injection. 5 weeks later, once tumor size reached 0.3 cm^3, mice were randomized and given 1 dose of 3-(decylamino)-5-phenylcyclohex-2-en-1-one (15 mg/kg) by oral gavage (FIG. 9A). […] NRF2 protein levels peaked 4 h after administration of BC1558 and started to decline by 8-24 h post-dose. The timing of CDT1 accumulation was compared to NRF2, peaking 4 h after 3-(decylamino)-5-phenylcyclohex-2-en-1-one administration.

PBMC cells = experiment: LPS-induced TNF release from PBMC cells (ELISA); type: cell-based; conditions: various concentrations for 2 h, then LPS (10 ng/ml) for 12 h (FIG. 10A)
Description: Cells were then treated with LPS (10 ng/ml) for additional 2 h. Media were then collected and TNF concentration was determined by ELISA. […] Lung tissue was collected and assayed for immunoblotting. Culture media was collected and assayed for cytokines.
Since SCF machinery is believed to be essential for NF-kB activation, it was investigated whether the DCN1 inhibitors could affect inflammation. 3-(decylamino)-5-phenylcyclohex-2-en-1-one was first tested in PBMCs cells. Briefly, PBMC cells were treated with 3-(decylamino)-5-phenylcyclohex-2-en-1-one at various concentrations for 2 h before exposed to LPS (10 ng/ml) for 12 h.

[7] = system: DSS induced colonic inflammation; experiment: DSS induced colitis model; type: in vivo, C57BL6 mice; conditions: DSS in water
Description: FIGS. 12A-12D show DCN1 inhibitors reduce DSS induced colonic inflammation, specifically the following experimental results C57BL6 mice were fed with water ad lib containing 3% dextran sulfate sodium (DSS) for six days. DCN1 inhibitors were administered into drinking water at 10 mg/kg/d, starting at day 1. […] The data represent n=4 mice/group, *P<0.05 versus CON.
Also tested were 3-(decylamino)-5-phenylcyclohex-2-en-1-one (BC1558), 3-(dibenzylamino)-5-phenylcyclohex-2-en-1-one (BC1634) and 3-((4-phenoxybenzyl)amino)-5-phenylcyclohex-2-en-1-one (BC1653) in a mouse colitis model to confirm its anti-inflammatory activity. Briefly, C57BL6 mice were fed with water containing 3.5% […] and colonic length was measured. DSS produced a significant decrease in colon length in mice, consistent with colonic inflammation (FIG. 12A-B). […] Colonic tissue cytokine levels were further analyzed.

[8] = single dose 15 mg/kg oral gavage, tumor tissue

CCCCCCCCCCNC1=CC(=O)CC(c2ccccc2)C1 (stereo not shown) [BC1558, 3-(decylamino)-5-phenylcyclohex-2-en-1-one]
inhibiting cell proliferation (HepG2 cells [1]; various concentrations (FIG. 3D)): exhibited activity
IC50 (HepG2 cells [1]; Homo sapiens, ATP production, n=3, read-out: IC50Proliferation): < 1000 nM
apoptosis markers Clvd-caspase3 and Clvd-PARP ([2]; 10 μM, various times (FIG. 6A)): effectively increased
apoptosis markers Clvd-caspase3 and Clvd-PARP ([2]; 48 h, various concentrations (FIG. 5A)): effectively increased
SCF substrates p27, NRF2 and CDT1 [3]: increased
G0 and G2/M phases (HepG2 cells [4]; 10 μM, at 16 h (FIG. 6B)): increased
S phase (HepG2 cells [4]; 10 μM, at 16 h (FIG. 6B)): effectively decreased
G0 and G2/M phases (HepG2 cells [4]; 36 h, dose dependent (FIG. 5B)): increased
S phase (HepG2 cells [4]; 36 h, dose dependent (FIG. 5B)): effectively decreased
hepG2 cells migration (HepG2 cells [5]): showed inhibition
cell morphology (HepG2 cells [6]): accumulation of rounded, apoptotic hepG2 cells
tumor size compared to the vehicle (HepG2 tumor implants): Significantly reduced tumor size
phosphorylated CHK1 (Ser 317), DNA damage in the tumor (HepG2 tumor tissue; at 8 h after a single administration, 15 mg/kg oral gavage): increased levels
steady state levels of NRF2 and CDT1 (HepG2 tumor tissue; [8]): time-dependent increase
time at which NRF2 protein levels started to decline post-dose (HepG2 tumor tissue; [8]): 8 to 24 h
time of maximal effect on NEDD8-cullin levels post-dose (HepG2 tumor tissue; [8]): 2 to 4 h
time of peak CDT1 accumulation after administration (HepG2 tumor tissue; [8]): 4 h
time of peak NRF2 protein levels after administration (HepG2 tumor tissue; [8]): 4 h
time to decrease of NEDD8-cullin levels after administration (HepG2 tumor tissue; single dose 15 mg/kg oral gavage, tumor tissue (FIG. 9B)): ≤ 1 h
LPS-induced TNF release from PBMC cells (PBMC cells): potently inhibited
colon length compared vehicle ([7]; compounds in drinking water at 10 mg/kg/d (FIG. 12A-B)): significant increase
IL1β and IL6 levels in colonic tissue compared to vehicle ([7]; compounds in drinking water at 10 mg/kg/d (FIG. 12C-D)): large reduction
